Here are results for 7 compounds from ChEMBL document CHEMBL1165874, “Carbonic anhydrase inhibitors: synthesis and inhibition of the human cytosolic isozymes I and II and transmembrane isozymes IX, XII (cancer-associated) and XIV with 4-substituted 3-pyridinesulfonamides” (Eur J Med Chem, 2010).

In one assay the target is Carbonic anhydrase 9 (Homo sapiens, UniProt Q16790).
A further assay concerns the target Carbonic anhydrase 14 (Homo sapiens, UniProt Q9ULX7).

Chain of Carbonic anhydrase 14 (Q9ULX7 whole entry): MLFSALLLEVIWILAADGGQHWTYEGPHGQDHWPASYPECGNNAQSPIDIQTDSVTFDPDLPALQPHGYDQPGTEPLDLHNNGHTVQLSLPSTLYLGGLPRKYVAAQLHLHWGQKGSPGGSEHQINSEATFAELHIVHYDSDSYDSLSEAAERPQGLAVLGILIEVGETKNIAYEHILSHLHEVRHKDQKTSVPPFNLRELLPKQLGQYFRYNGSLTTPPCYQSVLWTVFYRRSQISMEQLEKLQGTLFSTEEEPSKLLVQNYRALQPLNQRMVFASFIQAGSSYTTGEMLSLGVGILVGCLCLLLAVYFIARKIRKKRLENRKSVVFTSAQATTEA

For `CC1CC=NN1c1ccncc1S(N)(=O)=O` (configuration not stated), the affinity on Carbonic anhydrase 9, expressed as Ki, was 7.8 nM. On the same count and under the same terms, under `C#CCSc1ccncc1S(N)(=O)=O` stands 6.3 nM. Same read-out and setting: under `NS(=O)(=O)c1cnccc1Oc1ccc(F)cc1` stands 7.9 nM; under `N#Cc1ccc(Oc2ccncc2S(N)(=O)=O)cc1`, 7.2 nM. The same measure, in the same setting: the result for `NS(=O)(=O)c1cnccc1Sc1nnns1` reads 7.7 nM. `NS(=O)(=O)c1ccc(S(=O)(=O)Nc2cccc3c(Cl)c[nH]c23)cc1` returned a Ki at Carbonic anhydrase 14 of 104 nM. In turn, `NS(=O)(=O)c1cnccc1Sc1nc2ccc([N+](=O)[O-])cc2s1` yielded an inhibitory constant (Ki) on Carbonic anhydrase 9 of 9.6 nM.
